Results reported in ChEMBL document CHEMBL4507326, “Data for DCP probe TP-030-2” (2021).
Calls of active or inactive are those of the source. No cut-off for these calls is given here.

Legend:
[1] = target: Cysteinyl leukotriene receptor 1 (Homo sapiens) (UniProt Q9Y271); assay: Inhibition of Leukotriene, Cysteinyl CysLT1 at 10 µM in the Eurofins-Panlabs radioligand binding assay (Eurofins_assay_250460); parameters: ligand concentration 0.3 nM, non-specific ligand with concentration 0.3 µM Leukotriene D4, incubation time 30 min, incubation temperature 25 °C; settings: Compound concentration 10.0 uM
[2] = target: ATP-sensitive inward rectifier potassium channel 11 (Cricetulus griseus) (UniProt A0A3L7HHE1); assay: Inhibition of Potassium Channel [KATP] at 10 µM in the Eurofins-Panlabs radioligand binding assay (Eurofins_assay_265600); settings: Cricetinae; Compound concentration 10.0 uM
[3] = target: T1, Receptor-interacting serine/threonine-protein kinase 1 (Homo sapiens, UniProt Q13546); assay: TR-FRET (human RIPK1)
[4] = target: Alpha-1A adrenergic receptor (Homo sapiens) (UniProt P35348); assay: Inhibition of Adrenergic alpha1A at compound concentration of 10.0 uM in the Eurofins-Panlabs radioligand binding assay (Eurofins_assay_203110); parameters: ligand concentration 0.25 nM; settings: Rattus norvegicus; Compound concentration 10.0 uM
[5] = target: Cannabinoid receptor 1 (Homo sapiens) (UniProt P21554); assay: Inhibition of Cannabinoid CB1 at compound concentration of 10.0 uM in the Eurofins-Panlabs radioligand binding assay (Eurofins_assay_217050); parameters: ligand concentration 2 nM; settings: Compound concentration 10.0 uM
[6] = target: Tyrosine-protein kinase ABL1 (Homo sapiens, UniProt P00519); assay: Abl(ABL1IHY1) Takeda global kinase panel
[7] = target: G protein-coupled receptor kinase 3 (Homo sapiens, UniProt P35626); assay: BARK2 [GRK3(ADR2LGG5)] Takeda global kinase panel
[8] = target: Cell division cycle 7-related protein kinase (Homo sapiens, UniProt O00311); assay: CDC7(CDC7CGP1) Takeda global kinase panel
[9] = target: Cyclin-dependent kinase 16 (Homo sapiens, UniProt Q00536); assay: PCTAIRE1(CD16SGS1) Takeda global kinase panel
[10] = target: Cyclin-dependent kinase 4 (Homo sapiens, UniProt P11802); assay: CDK4(CDK4CGS1) Takeda global kinase panel
[11] = target: Casein kinase I isoform gamma-2 (Homo sapiens, UniProt P78368); assay: CK1gamma2(C1G2LGI1) Takeda global kinase panel
[12] = target: Serine/threonine-protein kinase DCLK3 (Homo sapiens, UniProt Q9C098); assay: DCAMKL3(DCL3LGP1) Takeda global kinase panel
[13] = target: Dual specificity tyrosine-phosphorylation-regulated kinase 4 (Homo sapiens, UniProt Q9NR20); assay: DYRK4(DYR4LHY1) Takeda global kinase panel
[14] = target: Eukaryotic translation initiation factor 2-alpha kinase 1 (Homo sapiens, UniProt Q9BQI3); assay: HRI(EIK1CGQ1) Takeda global kinase panel
Ephrin type-B receptor 1 = Ephrin type-B receptor 1 (Homo sapiens, UniProt P54762); assay: EphB1(EPB1LGY1) Takeda global kinase panel
[15] = target: Vascular endothelial growth factor receptor 1 (Homo sapiens, UniProt P17948); assay: FLT1(FLT1LGC5) Takeda global kinase panel
[16] = target: Homeodomain-interacting protein kinase 4 (Homo sapiens, UniProt Q8NE63); assay: HIPK4(HIP4LHY1) Takeda global kinase panel
[17] = target: Mast/stem cell growth factor receptor Kit (Homo sapiens, UniProt P10721); assay: Kit(KIT1MGC1) Takeda global kinase panel
[18] = target: Mitogen-activated protein kinase kinase kinase 5 (Homo sapiens, UniProt Q99683); assay: ASK [MAP3K5(M3K5LGA1)] Takeda global kinase panel
[19] = target: Mitogen-activated protein kinase 15 (Homo sapiens, UniProt Q8TD08); assay: ERK7(MP15LGY1) Takeda global kinase panel
[20] = target: NUAK family SNF1-like kinase 2 (Homo sapiens, UniProt Q9H093); assay: NuaK2(NUA2LHY1) Takeda global kinase panel
[21] = target: Phosphorylase b kinase gamma catalytic chain, skeletal muscle/heart isoform (Homo sapiens, UniProt Q16816); assay: PhKgamma1(PHG1LHY1) Takeda global kinase panel
[22] = target: Protein kinase C beta type (Homo sapiens, UniProt P05771); assay: PKCbeta(PRKBPHY3) Takeda global kinase panel
[23] = target: Protein kinase C eta type (Homo sapiens, UniProt P24723); assay: PKCeta(PRKHLGRA) Takeda global kinase panel
[24] = target: Protein kinase C iota type (Homo sapiens, UniProt P41743); assay: PKCiota(PRKILGRD) Takeda global kinase panel
[25] = target: Serine/threonine-protein kinase D1 (Homo sapiens, UniProt Q15139); assay: PKD1(PRD1LHY1) Takeda global kinase panel
[26] = target: cGMP-dependent protein kinase 2 (Homo sapiens, UniProt Q13237); assay: PKG2(PRG2LHY1) Takeda global kinase panel
[27] = target: cAMP-dependent protein kinase catalytic subunit PRKX (Homo sapiens, UniProt P51817); assay: PRKX(PRKXLGH5) Takeda global kinase panel
[28] = target: T1, Receptor-interacting serine/threonine-protein kinase 1; assay: RIPK1(RIP1PGN1) Takeda global kinase panel
[29] = target: Proto-oncogene tyrosine-protein kinase ROS (Homo sapiens, UniProt P08922); assay: Ros(ROS1PHY1) Takeda global kinase panel
[30] = target: Ribosomal protein S6 kinase alpha-4 (Homo sapiens, UniProt O75676); assay: MSK2(R6A4LGRJ) Takeda global kinase panel
[31] = target: Serine/threonine-protein kinase Sgk3 (Homo sapiens, UniProt Q96BR1); assay: SGK3(SGK3LGY1) Takeda global kinase panel
[32] = target: STE20-like serine/threonine-protein kinase (Homo sapiens, UniProt Q9H2G2); assay: SLK(SLK1LGRJ) Takeda global kinase panel
[33] = target: Serine/threonine-protein kinase ULK2 (Homo sapiens, UniProt Q8IYT8); assay: ULK2(ULK2LGY1) Takeda global kinase panel
[34] = target: Cyclin-dependent kinase 11A (Homo sapiens, UniProt Q9UQ88); assay: CDK11A(C11ALGS1) Takeda global kinase panel
[35] = target: Bromodomain-containing protein 4 (Homo sapiens, UniProt O60885); assay: BRD4(BRD4LGRC) Takeda global kinase panel
[36] = target: 5-hydroxytryptamine receptor 7 (Homo sapiens) (UniProt P34969); settings: Compound concentration 10.0 uM
[37] = target: Sodium-dependent serotonin transporter (Homo sapiens) (UniProt P31645); settings: Compound concentration 10.0 uM
[38] = target: Histamine H2 receptor (Homo sapiens) (UniProt P25021); settings: Compound concentration 10.0 uM
[39] = target: Adenosine receptor A2a (Homo sapiens) (UniProt P29274); settings: Compound concentration 10.0 uM
[40] = target: Beta-2 adrenergic receptor (Homo sapiens) (UniProt P07550); settings: Compound concentration 10.0 uM
[41] = target: Endothelin-1 receptor (Homo sapiens) (UniProt P25101); settings: Compound concentration 10.0 uM
[42] = target: Mu-type opioid receptor (Homo sapiens) (UniProt P35372); settings: Compound concentration 10.0 uM
[43] = target: 5-hydroxytryptamine receptor 1A (Homo sapiens) (UniProt P08908); settings: Compound concentration 10.0 uM

T1 sequence (Q13546 whole entry): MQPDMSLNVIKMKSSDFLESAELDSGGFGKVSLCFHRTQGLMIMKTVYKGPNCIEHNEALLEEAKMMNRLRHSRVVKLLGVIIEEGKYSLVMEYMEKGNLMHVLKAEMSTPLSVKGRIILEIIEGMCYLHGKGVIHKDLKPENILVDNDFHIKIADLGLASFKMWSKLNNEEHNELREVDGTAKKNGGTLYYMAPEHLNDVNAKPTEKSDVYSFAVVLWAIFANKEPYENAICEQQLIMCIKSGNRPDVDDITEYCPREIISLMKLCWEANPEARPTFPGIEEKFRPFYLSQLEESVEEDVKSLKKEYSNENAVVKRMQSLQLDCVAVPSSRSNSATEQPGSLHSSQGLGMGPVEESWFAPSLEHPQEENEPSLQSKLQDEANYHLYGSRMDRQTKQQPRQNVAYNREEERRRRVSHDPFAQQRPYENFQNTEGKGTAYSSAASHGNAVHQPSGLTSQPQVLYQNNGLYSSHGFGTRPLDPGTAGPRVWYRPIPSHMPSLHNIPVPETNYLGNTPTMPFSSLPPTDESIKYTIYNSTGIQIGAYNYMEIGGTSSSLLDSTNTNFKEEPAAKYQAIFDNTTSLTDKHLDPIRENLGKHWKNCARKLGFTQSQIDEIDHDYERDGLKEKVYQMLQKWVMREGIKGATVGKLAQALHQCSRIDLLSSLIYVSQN
Chain of Ribosomal protein S6 kinase alpha-4 (O75676 whole entry): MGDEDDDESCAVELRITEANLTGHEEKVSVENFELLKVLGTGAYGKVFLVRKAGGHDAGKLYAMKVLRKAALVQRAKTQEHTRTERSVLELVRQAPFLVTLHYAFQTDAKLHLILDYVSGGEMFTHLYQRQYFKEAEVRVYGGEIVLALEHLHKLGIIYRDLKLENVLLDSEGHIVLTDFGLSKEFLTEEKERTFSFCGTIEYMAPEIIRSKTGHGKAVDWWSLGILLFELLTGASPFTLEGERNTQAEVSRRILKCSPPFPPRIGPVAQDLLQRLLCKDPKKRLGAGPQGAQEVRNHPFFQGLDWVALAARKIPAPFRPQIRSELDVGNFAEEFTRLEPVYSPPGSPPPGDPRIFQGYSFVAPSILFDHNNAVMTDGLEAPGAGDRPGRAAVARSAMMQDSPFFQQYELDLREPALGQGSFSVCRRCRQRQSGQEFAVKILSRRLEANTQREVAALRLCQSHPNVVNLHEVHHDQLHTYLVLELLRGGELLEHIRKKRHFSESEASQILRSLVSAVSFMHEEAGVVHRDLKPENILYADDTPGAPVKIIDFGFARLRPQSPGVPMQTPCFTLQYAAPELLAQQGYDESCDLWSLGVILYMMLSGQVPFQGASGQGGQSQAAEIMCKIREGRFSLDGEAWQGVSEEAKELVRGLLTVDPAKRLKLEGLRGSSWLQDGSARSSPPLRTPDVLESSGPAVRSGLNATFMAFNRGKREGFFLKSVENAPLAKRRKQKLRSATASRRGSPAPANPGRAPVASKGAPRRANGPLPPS
Chain of STE20-like serine/threonine-protein kinase (Q9H2G2 whole entry): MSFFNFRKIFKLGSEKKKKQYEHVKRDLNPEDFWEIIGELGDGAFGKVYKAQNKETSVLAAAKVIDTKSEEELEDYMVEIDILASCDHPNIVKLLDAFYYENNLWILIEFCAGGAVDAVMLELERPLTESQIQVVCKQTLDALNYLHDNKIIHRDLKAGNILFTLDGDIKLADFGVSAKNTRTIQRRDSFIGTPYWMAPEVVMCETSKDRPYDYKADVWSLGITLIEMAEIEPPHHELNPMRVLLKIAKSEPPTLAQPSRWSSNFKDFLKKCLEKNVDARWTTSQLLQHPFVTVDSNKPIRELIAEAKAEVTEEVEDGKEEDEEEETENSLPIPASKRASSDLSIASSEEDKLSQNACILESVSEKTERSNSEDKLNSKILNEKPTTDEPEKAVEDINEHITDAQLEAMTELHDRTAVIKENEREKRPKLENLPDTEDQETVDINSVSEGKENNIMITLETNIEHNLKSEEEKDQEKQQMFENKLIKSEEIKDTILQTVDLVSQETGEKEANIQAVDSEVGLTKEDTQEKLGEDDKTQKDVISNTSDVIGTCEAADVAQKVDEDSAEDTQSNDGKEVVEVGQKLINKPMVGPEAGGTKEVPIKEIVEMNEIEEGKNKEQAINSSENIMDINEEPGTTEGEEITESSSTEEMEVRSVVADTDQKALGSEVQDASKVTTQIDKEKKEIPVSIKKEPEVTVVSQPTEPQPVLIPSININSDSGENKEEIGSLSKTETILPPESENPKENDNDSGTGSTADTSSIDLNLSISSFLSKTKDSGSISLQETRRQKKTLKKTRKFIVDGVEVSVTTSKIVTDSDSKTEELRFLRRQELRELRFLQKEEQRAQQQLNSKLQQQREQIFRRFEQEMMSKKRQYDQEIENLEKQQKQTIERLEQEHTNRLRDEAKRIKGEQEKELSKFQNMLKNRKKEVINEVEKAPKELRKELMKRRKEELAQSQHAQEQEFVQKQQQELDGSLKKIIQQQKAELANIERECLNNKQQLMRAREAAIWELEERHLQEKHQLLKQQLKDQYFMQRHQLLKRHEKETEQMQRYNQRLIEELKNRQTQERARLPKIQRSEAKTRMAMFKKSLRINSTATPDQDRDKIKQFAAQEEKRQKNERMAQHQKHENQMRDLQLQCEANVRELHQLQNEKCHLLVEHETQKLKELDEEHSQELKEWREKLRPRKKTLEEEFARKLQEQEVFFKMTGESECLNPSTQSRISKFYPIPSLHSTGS
Chain of Dual specificity tyrosine-phosphorylation-regulated kinase 4 (Q9NR20 whole entry): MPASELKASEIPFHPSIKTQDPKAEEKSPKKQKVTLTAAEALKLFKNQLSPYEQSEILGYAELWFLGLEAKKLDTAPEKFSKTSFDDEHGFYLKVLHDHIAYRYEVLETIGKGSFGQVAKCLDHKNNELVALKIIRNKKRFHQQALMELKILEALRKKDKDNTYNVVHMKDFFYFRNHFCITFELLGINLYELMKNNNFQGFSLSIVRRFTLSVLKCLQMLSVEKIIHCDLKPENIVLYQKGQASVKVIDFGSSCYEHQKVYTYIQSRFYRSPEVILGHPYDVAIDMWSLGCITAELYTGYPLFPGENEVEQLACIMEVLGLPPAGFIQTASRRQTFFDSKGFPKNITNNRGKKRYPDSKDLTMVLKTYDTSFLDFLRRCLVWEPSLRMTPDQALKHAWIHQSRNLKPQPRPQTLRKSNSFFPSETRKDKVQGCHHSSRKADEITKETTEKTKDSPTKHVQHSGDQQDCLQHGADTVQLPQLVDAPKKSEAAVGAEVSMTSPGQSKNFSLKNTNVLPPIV
Chain of Cannabinoid receptor 1 (Homo sapiens) (P21554 whole entry): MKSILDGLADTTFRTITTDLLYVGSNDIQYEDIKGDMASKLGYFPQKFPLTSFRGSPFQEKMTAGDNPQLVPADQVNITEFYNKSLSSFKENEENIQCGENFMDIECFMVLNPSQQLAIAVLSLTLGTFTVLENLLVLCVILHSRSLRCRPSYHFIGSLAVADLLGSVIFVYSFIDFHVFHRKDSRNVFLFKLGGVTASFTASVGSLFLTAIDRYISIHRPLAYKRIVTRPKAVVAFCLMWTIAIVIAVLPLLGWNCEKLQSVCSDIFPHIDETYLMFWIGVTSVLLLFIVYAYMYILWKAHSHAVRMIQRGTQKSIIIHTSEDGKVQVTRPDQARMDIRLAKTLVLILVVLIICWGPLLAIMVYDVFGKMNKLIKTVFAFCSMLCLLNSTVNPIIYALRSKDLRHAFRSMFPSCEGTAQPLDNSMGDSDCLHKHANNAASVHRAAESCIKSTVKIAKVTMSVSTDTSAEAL
Chain of Mitogen-activated protein kinase kinase kinase 5 (Q99683 whole entry): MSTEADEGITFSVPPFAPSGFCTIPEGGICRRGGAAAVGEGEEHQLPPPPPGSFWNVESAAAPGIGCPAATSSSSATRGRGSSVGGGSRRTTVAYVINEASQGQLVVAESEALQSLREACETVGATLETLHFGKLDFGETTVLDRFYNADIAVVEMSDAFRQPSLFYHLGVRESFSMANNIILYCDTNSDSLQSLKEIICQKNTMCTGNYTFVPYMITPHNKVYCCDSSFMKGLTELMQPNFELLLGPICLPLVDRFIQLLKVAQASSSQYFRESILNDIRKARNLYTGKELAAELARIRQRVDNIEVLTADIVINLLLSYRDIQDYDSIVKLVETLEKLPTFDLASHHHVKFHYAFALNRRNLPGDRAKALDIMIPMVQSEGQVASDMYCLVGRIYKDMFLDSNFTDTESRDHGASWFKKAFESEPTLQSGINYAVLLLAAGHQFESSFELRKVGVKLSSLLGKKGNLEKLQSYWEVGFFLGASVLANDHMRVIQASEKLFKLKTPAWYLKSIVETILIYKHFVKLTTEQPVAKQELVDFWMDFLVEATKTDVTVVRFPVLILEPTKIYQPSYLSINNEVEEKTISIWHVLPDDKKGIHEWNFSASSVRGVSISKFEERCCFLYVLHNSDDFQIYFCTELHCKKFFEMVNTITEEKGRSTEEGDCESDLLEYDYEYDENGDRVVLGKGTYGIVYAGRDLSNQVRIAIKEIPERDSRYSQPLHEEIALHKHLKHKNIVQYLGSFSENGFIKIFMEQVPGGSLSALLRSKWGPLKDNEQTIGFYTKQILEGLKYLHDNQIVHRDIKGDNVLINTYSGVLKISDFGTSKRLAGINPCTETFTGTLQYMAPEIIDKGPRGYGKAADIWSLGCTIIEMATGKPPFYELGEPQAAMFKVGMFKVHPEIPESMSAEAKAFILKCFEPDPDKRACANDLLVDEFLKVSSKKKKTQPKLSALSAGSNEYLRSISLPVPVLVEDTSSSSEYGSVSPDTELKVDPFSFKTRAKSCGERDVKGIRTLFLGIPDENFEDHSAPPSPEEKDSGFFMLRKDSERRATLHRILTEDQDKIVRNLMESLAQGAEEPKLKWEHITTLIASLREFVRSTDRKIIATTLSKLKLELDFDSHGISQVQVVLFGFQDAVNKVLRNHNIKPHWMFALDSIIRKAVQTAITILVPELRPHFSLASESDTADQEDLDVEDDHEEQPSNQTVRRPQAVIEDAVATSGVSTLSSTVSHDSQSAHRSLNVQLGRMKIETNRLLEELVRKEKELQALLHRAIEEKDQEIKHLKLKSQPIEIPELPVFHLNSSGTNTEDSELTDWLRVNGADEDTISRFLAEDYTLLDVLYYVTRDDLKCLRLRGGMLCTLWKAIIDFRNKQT

SMILES: CN1C(=O)[C@@H](N2CCc3c(nn(Cc4ccccc4)c3Br)C2=O)COc2ccccc21 [TP-030-2]
- inhibition [1]: 5%
- inhibition [2]: 14%
- Ki [3]: 0.43 nM (active)
- inhibition [4]: -7%
- inhibition [5]: 40%
- IC50 [6]: 1000 nM
- IC50 [7]: 1000 nM
- IC50 [8]: 1000 nM
- IC50 [9]: 1000 nM
- IC50 [10]: 1000 nM
- IC50 [11]: 1000 nM
- IC50 [12]: 1000 nM
- IC50 [13]: 1000 nM
- IC50 [14]: 1000 nM
- IC50 (Ephrin type-B receptor 1): 1000 nM
- IC50 [15]: 1000 nM
- IC50 [16]: 1000 nM
- IC50 [17]: 1000 nM
- IC50 [18]: 1000 nM
- IC50 [19]: 1000 nM
- IC50 [20]: 1000 nM
- IC50 [21]: 1000 nM
- IC50 [22]: 1000 nM
- IC50 [23]: 1000 nM
- IC50 [24]: 1000 nM
- IC50 [25]: 1000 nM
- IC50 [26]: 1000 nM
- IC50 [27]: 1000 nM
- IC50 [28]: 10 nM
- IC50 [29]: 1000 nM
- IC50 [30]: 1000 nM
- IC50 [31]: 1000 nM
- IC50 [32]: 1000 nM
- IC50 [33]: 1000 nM
- IC50 [34]: 1000 nM
- IC50 [35]: 1000 nM
- inhibition [36]: 5.69%
- inhibition [37]: 22.6%
- inhibition [38]: 0.52%
- inhibition [39]: 8%
- inhibition [40]: -4%
- inhibition [41]: -3%
- inhibition [42]: 27%
- inhibition [43]: 18%
